# Results taken from US20150212064A1, “DEGRANULATION INDICATOR AND METHODS OF USE THEREOF” (priority 2011, published 2015).
# Entries after “also recorded” stand apart in the source; their conditions may differ.
# Key:
# [1] = tested on: NK92 cells expressing pHlourin-LAMP1; test: Live cell TIRFm of lytic granule motility and persistence in activated pHluorin-LAMP1 NK92 cells; format: cell-based, human; conditions: for pre-degranulation motility of granules: 10 μM LatA added after 10 minutes, vs DMSO control; for number / accumulation of granules at the TIRF plane of the activated NK IS: LatA-treated cells, not quantified
# Experimental: For NK92 lytic granule motility studies, pHluorin-LAMP1 NK92 cells were suspended in dye free RPMI 10% FBS media at a concentration of 7.5×10^5 to 10^6 cells/ml and incubated with 100 nM LysoTracker® Red DND-99 (Invitrogen) at 37° C. for 30 minutes, washed, and resuspended in media. ΔT culture dishes (Bioptechs) were coated with […] anti-NKp30 and -CD18, incubated at 37° C. for 1 hour or 4 degrees overnight, washed with PBS, and pre-warmed with dye free RPMI 10% FBS media. NK92 cells were plated on ΔT culture dishes immediately prior to imaging, and temperature was maintained at 37° C. throughout the experiment using a ΔT culture dish heater and lid (Bioptechs).
# Cells were imaged in a single z-plane 10-15 minutes after addition to imaging chambers through an APO N TIRFm, oil immersion 60×1.49 NA objective using an Olympus IX-81 spinning disk confocal microscope with a rear-mounted TIRF illuminator and a Hamamatsu EM CCD C9100 camera. Excitation was by 480 nm (Spectra-Physics) and 561 nm (Cobalt) diode lasers through a LMM5 laser combiner unit (Spectral Applied Research). Cell image sequences were captured in TIRF mode at the interface between the cell and the glass over 60-80 minutes at 6 frames per minute using Volocity® software (PerkinElmer). Where indicated, cells were incubated with 10 μM LatA (Sigma) following 10 minutes of pre-incubation in the imaging chamber.
# For TIRFm analysis, image sequences were analyzed using Volocity® software (PerkinElmer). LysoTracker® Red and pHluorin positive events were identified and cropped in Volocity®. Object tracks were generated over time using the “track objects manually” function and the rectangular selection tool for each event; the track length, track velocity, displacement, and displacement rate of each lytic granule were measured for both LysoTracker® Red time points and pHluorin time points, and comparatively graphed on GraphPad Prism® Version 5.0 (GraphPad software). Overlays of lytic granule tracks were generated by the plotting of X and Y coordinate values from Volocity with GraphPad Prism® for both Lysotracker® Red and pHluorin. To measure the time persistence of LysoTracker® Red lytic granules within the TIRF field, the time of LysoTracker® Red emergence on the TIRF field was subtracted from the time of pHlourin appearance or LysoTracker® Red disappearance and multiplied by 60 to obtain time persistence in seconds.
# For LatA experiments, granules with both Lysotracker Red and pHluorin traces were identified and cropped in Volocity®. Objects were identified using a threshold of 3 SD above the mean field fluorescence for each timepoint to account for photobleaching using the “Find Objects Using SD Intensity” function. Objects smaller than 0.032 μm^2 were excluded from further analysis. Tracks were then generated using the “Track Objects” feature using the “Shortest Path” tracking model, and the track length, track velocity, displacement, displacement rate, and time span of each lytic granule tabulated and graphed using GraphPad Prism® software Version 5.0.
# The sum fluorescent intensity and area of each granule was also recorded at each timepoint. Using the initial appearance of pHluorin-LAMP1 as time zero, the average sum fluorescent intensity post-degranulation was calculated and graphed for lytic granules treated with DMSO vehicle control versus those treated with LatA. For area measurements, the borders of individual granules were defined as those above 3 SD.
# NK cell = conditions: cited from earlier work
# [2] = tested on: NK cell cortical actin filaments; conditions: cited from earlier work
# PC12 chromaffin cells = conditions: cited from earlier work
# resting human NK cells = conditions: cited from earlier work
# [3] = tested on: NK-92 cells expressing pHluorin-LAMP1; test: Flow cytometry of green fluorescence of NK-92 cells expressing pHluorin-LAMP1; format: cell-based, human; conditions: for pHluorin fluorescence: PMA 100 ng/mL and Ionomycin 1 μg/mL together for 30 minutes
# Experimental: Flow cytometry was performed to verify pHluorin-LAMP1 expression. Cells were untreated or treated with phorbol myristate acetate (PMA, 100 ng/mL,Sigma) and Ionomycin (1 μg/mL, Sigma) for 30 minutes or Concanamycin A (CMA, 100 nM, Sigma) for 90 minutes and samples were run on a Becton Dickinson FACSCalibur™.
# NK-92 cells = test: Degranulation assay (Granzyme A activity, BLT esterase) of NK-92 cells activated by immobilized antibody to NKp30 and CD18; format: cell-based, human; conditions: thapsigargin 1 μM, positive control
# Experimental: Immulon 4HBX 96 well flat bottom plates (Thermo) were coated with murine IgG (BD), anti-human NKp30, anti-human CD18, or both anti-NKp30 and anti-CD18 at 5 μg/mL in PBS overnight at 4° C. Plates were washed twice with PBS and blocked for 1 hr at room temperature with R10 media. One×10^5 cells were added to wells and plates were spun at 1000 rpm for two minutes before incubation at 37° C. For the timecourse degranulation assay, supernatants from spontaneous and activated wells were harvested at indicated times. For inhibitor treatments, media containing inhibitor or vehicle (DMSO) was added at indicated times. Inhibitors used were jasplakinolide (1 μM, Calbiochem), latrunculin A (10 μM, Sigma), cytochalasin D (10 μM, Sigma), and thapsigargin (1 μM, Calbiochem). Supernatatants were harvested after 60 minutes. For total release, cells were lysed in 0.5% Nonidet P40 (Accurate Chemical and Scientific). […] Samples were incubated for 30 minutes at 37° C. and absorbance was measured immediately at 405 nm. Percent total release was measured by subtracting the spontaneous release value from activated release values (A-S) and the total release value (T-S), and then dividing (A-S) by (T-S).
# neutrophils = conditions: cited from earlier work
# [4] = 10 μM LatA, 12-18 tracks, normalized to DMSO control
structure (smiles),measurement,setting,value
"C/C1=C/C(=O)O[C@@H]2C[C@@H](CC[C@H](C)/C=C\C=C\CC1)O[C@@](O)([C@@H]1CSC(=O)N1)C2 [LatA, latrunculin A]",pre-degranulation motility of granules,[1],intact; also recorded: did not significantly affect granule movement prior to degranulation
same,pre-degranulation motility of granules,[1]; listed as Latrunculin A,did not affect pre-exocytosis movement
same,lytic granule total displacement,[1]; [4],no significant differences
same,lytic granule track length,[1]; [4],no significant differences
same,lytic granule velocity,[1]; [4],no significant differences
same,timespan of green fluorescence (persistence following exocytosis),"[1]; 10 μM LatA, control normalized to 1.0±0.56, p=0.0441",0.59±0.442
same,lifetime of red fluorescence (timespan pre-degranulation),"[1]; 10 μM LatA, control normalized to 1.0±0.87",1.1±0.61 AU
same,median time for 50% survival of granules following degranulation (Kaplan-Meier),"[1]; 10 μM LatA, control treated cells 28.8 minutes",13.7 min
same,area of granules post-degranulation,"[1]; LatA vs DMSO, over 40 minutes p<0.0001, truncated at 20 minutes p=0.4438",slightly greater area
same,sum fluorescent intensity (MFI*area) of granules post-degranulation,"[1]; LatA vs DMSO, up to forty minutes post-degranulation, p<0.0001 Mann Whitney U test",significantly greater sum fluorescent intensity (MFI*area) of granules from DMSO treated cells
same,number / accumulation of granules at the TIRF plane of the activated NK IS,[1],no observable defect in the number of granules that reached the TIRF plane
same,number / accumulation of granules at the TIRF plane of the activated NK IS,[1]; listed as Latrunculin A,gross accumulation of granules was not observed
same,cytotoxic function,NK cell,abrogates cytotoxic function
same,depolymerization of cortical actin,[2],rapidly depolymerizes; also recorded: completely depolymerizes cortical actin
same,expulsion of granule contents,PC12 chromaffin cells,more rapid expulsion of granule contents
C/C1=C/C(=O)O[C@@H]2C[C@@H](CC[C@H](C)/C=C\CC1)O[C@@](O)([C@@H]1CSC(=O)N1)C2 [Latrunculin B],movement of granules at the plasma membrane / cortex,resting human NK cells,arrests those granules constitutively found at the plasma membrane
same,numbers of granules at the plasma membrane,resting human NK cells,does not result in increased numbers of granules
"CCCCCCCCCCCCCC(=O)O[C@@H]1[C@@H](C)[C@@]2(O)[C@@H](C=C(CO)C[C@]3(O)C(=O)C(C)=C[C@@H]23)[C@@H]2C(C)(C)[C@]12OC(C)=O [PMA, phorbol myristate acetate]",pHluorin fluorescence,[3],rapid increase in pHluorin fluorescence
"C/C=C(/C)C(=O)O[C@H]1C(C)=C2[C@H]([C@@H]1OC(=O)CCCCCCC)[C@@](C)(OC(C)=O)C[C@H](OC(=O)CCC)[C@@]1(O)[C@H]2OC(=O)[C@@]1(C)O [Thapsigargin, thapsigargin]",effect on degranulation,NK-92 cells,positive effect on degranulation
"C/C=C/[C@H]1O[C@@](O)([C@@H](C)[C@H](O)[C@H](C)[C@H]2OC(=O)/C(OC)=C/C(C)=C/[C@@H](C)[C@@H](O)[C@@H](CC)[C@@H](O)[C@H](C)C/C(C)=C/C=C/[C@@H]2OC)C[C@@H](O[C@H]2C[C@@H](O)[C@H](OC(N)=O)[C@@H](C)O2)[C@@H]1C [concanamycin A, Concanamycin A]",green fluorescence measured by flow cytometry,[3]; Concanamycin A 100 nM for 90 minutes,robust increase in green fluorescence
C=C1[C@@H](C)[C@H]2[C@H](Cc3ccccc3)NC(=O)[C@]23[C@H](OC(C)=O)/C=C/[C@@](C)(O)C(=O)[C@@H](C)C/C=C/[C@H]3[C@@H]1O [cytochalasin D],accumulation of granules at the exocytic zone,neutrophils,seems to promote the accumulation of granules
same,movement of granules in the TIRF plane at the membrane,neutrophils,does not prevent movement of granules
"C[C@H](CCC(=O)O)C[C@H](C)C[C@H](C)C(=O)/C=C(\O)[C@H](C)C[C@H](C)C/C=C/[C@@H](C)[C@@H](O)[C@@H](C)[C@@H](O)C[C@@H]1CC[C@@](C)([C@H]2CC[C@@](C)([C@@H](C)O)O2)O1 [ionomycin, Ionomycin]",pHluorin fluorescence,[3],rapid increase in pHluorin fluorescence
COC(=O)Nc1nc2ccc(C(=O)c3cccs3)cc2[nH]1 [nocodazole],movement of granules at the plasma membrane / cortex,resting human NK cells,arrests the movement of granules at the cortex
